Patent US4363923A, “4-Halgeno-oxetan-2-ones and process for their production” (Ciba-Geigy Corporation, priority 1980, dated 1982)
In brackets after ≈: the same amount, converted by molar mass.

Experiments:
Assay type in all cases: cell-based
[1] = test system: Ulothrix subtilissima; assay: Test demonstrating algistatic activity; conditions: Klebsormidium subtilissimum, 504 h, 3 week incubation, shaking water bath, read-out: Minimum inhibitory Concentration, MIC
Method: (§1) The organisms against which the compounds are to be tested are grown in an Erlenmeyer flask in a nutrient medium under sterile conditions on a shaking water bath at 18° C. with exposure (14 hours in light alternating with 10 hours in the dark).
(§2) Tests are carried out against three algae, namely the blue algae
(b) the simple filament-forming Ulothrix subtilissima (B) generally found at colder times of the year in rapidly flowing water;
(§3) The composition of the medium is as follows (according to Algae broth, Difco Laboratories):
(§4) dissolved in 1 liter of distilled water. The nutrient medium treated with the biocide is innoculated with the respective algae suspension such that a final dilution of 1/100 (algae divided with a stirrer) is attained. Evaluation is made after a 3 week incubation in the Erlenmeyer flask on a shaking water bath.

[2] = test system: mixed culture of slime-forming bacteria; assay: Bactericidal test on a mixed culture of slime-forming bacteria in saline; conditions: 30 ppm, start 10^7 organisms/ml in saline
Method: A mixed culture of slime-forming bacteria including Pseudomonas aeruginosa, Enterobacter aerogenes, Escherichia coli, Proteus vulgaris, Bacillus mycoides and Staphylococcus aureus in saline containing 10^7 organisms/ml was treated with 30 ppm of the product of Example 2.

[3] = test system: Phormidium foveolarum; assay: Test demonstrating algistatic activity; conditions: Nodosilinea foveolarum, 504 h, 3 week incubation, shaking water bath, read-out: Minimum inhibitory Concentration, MIC
Method: as §1, §2
(a) Phormidium foveolarum (A) which lives in polluted water or moist earth and forms trichomes;
as §3, §4

[4] = test system: Tribonema aequale; assay: Test demonstrating algistatic activity; conditions: 504 h, 3 week incubation, shaking water bath, read-out: Minimum inhibitory Concentration, MIC
Method: as §1, §2
and the algae with brown chromatophors
(c) the widespread, unbranched filament-forming Tribonema aequale (C) occurring in bodies of water especially in the spring at low temperature or in the autumn, even in mild winters.
as §3, §4

O=C1CC(Cl)(CC(Cl)(Cl)Cl)O1 (centres unmarked) [Example 2, 4-chloro-4-(2,2,2-trichloroethyl)oxetan-2-one]
MIC [1]: 30 µg/mL (≈ 126 µM)
number of organisms reduced to ([2]; after one hour): 10^2 organisms/ml
killing of bacteria ([2]; within 24 hours): all the bacteria had been killed
MIC [3]: 30 µg/mL (≈ 126 µM)
MIC [4]: 30 µg/mL (≈ 126 µM)
